Test results as given in patent US10456407B2, “Combination therapy for treating cancer” (Epizyme, Inc., priority 2015, dated 2019).

System: WSU-DLCL2 cells
Assay: RT2 Glucocorticoid signaling PCR array, WSU-DLCL2 (WSU) cell line (Table 4c)
Assay type: cell-based

C[C@]12C=CC(=O)C=C1CC[C@@H]1[C@@H]2[C@@H](O)C[C@@]2(C)[C@H]1CC[C@]2(O)C(=O)CO [Prednisolone, prednisolone]
Ct Values, ACTB (gene ACTB): 14.572 | ΔCT (B2M), ACTB (gene ACTB): −4.573 | Ct Values, ADARB1 (gene ADARB1): 26.108 | ΔCT (B2M), ADARB1 (gene ADARB1): 6.963 | ΔΔCT, ADARB1 (gene ADARB1, compared to DMSO): 0.097 | Ct Values, AFF1 (gene AFF1): 27.334 | ΔCT (B2M), AFF1 (gene AFF1): 8.189 | ΔΔCT, AFF1 (gene AFF1, compared to DMSO): −0.464 | Ct Values, AK2 (gene AK2): 20.433 | ΔCT (B2M), AK2 (gene AK2): 1.288 | ΔΔCT, AK2 (gene AK2, compared to DMSO): 0.094 | Ct Values, AMPD3 (gene AMPD3): 27.943 | ΔCT (B2M), AMPD3 (gene AMPD3): 8.798 | ΔΔCT, AMPD3 (gene AMPD3, compared to DMSO): −0.219 | Ct Values, ANGPTL4 (gene ANGPTL4): 30.810 | ΔCT (B2M), ANGPTL4 (gene ANGPTL4): 11.665 | ΔΔCT, ANGPTL4 (gene ANGPTL4, compared to DMSO): −0.329 | Ct Values, ANXA4 (gene ANXA4): 27.406 | ΔCT (B2M), ANXA4 (gene ANXA4): 8.261 | ΔΔCT, ANXA4 (gene ANXA4, compared to DMSO): −0.025 | Ct Values, AQP1 (gene AQP1): 33.595 | ΔCT (B2M), AQP1 (gene AQP1): 14.450 | Ct Values, ARID68 (gene ARID68): 26.721 | ΔCT (B2M), ARID68 (gene ARID68): 7.576 | ΔΔCT, ARID68 (gene ARID68, compared to DMSO): 0.722 | Ct Values, ASPH (gene ASPH): 21.939 | ΔCT (B2M), ASPH (gene ASPH): 2.794 | ΔΔCT, ASPH (gene ASPH, compared to DMSO): −0.041 | Ct Values, ATF4 (gene ATF4): 19.659 | ΔCT (B2M), ATF4 (gene ATF4): 0.514 | ΔΔCT, ATF4 (gene ATF4, compared to DMSO): 0.090 | Ct Values, B2M (gene B2M (normaliser)): 19.145 | ΔCT (B2M), B2M (gene B2M (normaliser)): 0.000 | Ct Values, BCL6 (gene BCL6): 20.898 | ΔCT (B2M), BCL6 (gene BCL6): 1.753 | ΔΔCT, BCL6 (gene BCL6, compared to DMSO): 0.249 | Ct Values, CEBPA (gene CEBPA): 27.838 | ΔCT (B2M), CEBPA (gene CEBPA): 8.693 | ΔΔCT, CEBPA (gene CEBPA, compared to DMSO): −0.295 | Ct Values, CEBPB (gene CEBPB): 25.775 | ΔCT (B2M), CEBPB (gene CEBPB): 6.630 | ΔΔCT, CEBPB (gene CEBPB, compared to DMSO): 0.814 | Ct Values, COL4A2 (gene COL4A2): 34.328 | ΔCT (B2M), COL4A2 (gene COL4A2): 15.183 | Ct Values, CREB1 (gene CREB1): 22.732 | ΔCT (B2M), CREB1 (gene CREB1): 3.587 | ΔΔCT, CREB1 (gene CREB1, compared to DMSO): −0.133 | Ct Values, CREB3 (gene CREB3): 24.551 | ΔCT (B2M), CREB3 (gene CREB3): 5.406 | ΔΔCT, CREB3 (gene CREB3, compared to DMSO): −0.453 | Ct Values, CREB3L4 (gene CREB3L4): 24.437 | ΔCT (B2M), CREB3L4 (gene CREB3L4): 5.292 | ΔΔCT, CREB3L4 (gene CREB3L4, compared to DMSO): −0.330 | Ct Values, CYB561 (gene CYB561): 32.971 | ΔCT (B2M), CYB561 (gene CYB561): 13.826 | ΔΔCT, CYB561 (gene CYB561, compared to DMSO): −3.598 | Ct Values, DDIT4 (gene DDIT4): 22.252 | ΔCT (B2M), DDIT4 (gene DDIT4): 3.107 | ΔΔCT, DDIT4 (gene DDIT4, compared to DMSO): −1.672 | Ct Values, DUSP1 (gene DUSP1): 25.828 | ΔCT (B2M), DUSP1 (gene DUSP1): 6.683 | ΔΔCT, DUSP1 (gene DUSP1, compared to DMSO): 0.454 | Ct Values, EDN1 (gene EDN1): 30.019 | ΔCT (B2M), EDN1 (gene EDN1): 11.674 | Ct Values, EHD3 (gene EHD3): 27.724 | ΔCT (B2M), EHD3 (gene EHD3): 8.579 | ΔΔCT, EHD3 (gene EHD3, compared to DMSO): −1.645 | Ct Values, FK8PS (gene FK8PS): 21.321 | ΔCT (B2M), FK8PS (gene FK8PS): 2.176 | ΔΔCT, FK8PS (gene FK8PS, compared to DMSO): −1.247 | Ct Values, FOSL2 (gene FOSL2): 33.647 | ΔCT (B2M), FOSL2 (gene FOSL2): 14.502 | ΔΔCT, FOSL2 (gene FOSL2, compared to DMSO): 2.843 | Ct Values, GAPDH (gene GAPDH): 16.349 | ΔCT (B2M), GAPDH (gene GAPDH): −2.796 | Ct Values, GDPD1 (gene GDPD1): 28.235 | ΔCT (B2M), GDPD1 (gene GDPD1): 9.090 | ΔΔCT, GDPD1 (gene GDPD1, compared to DMSO): 0.169 | Ct Values, GHRHR (gene GHRHR): 37.739 | ΔCT (B2M), GHRHR (gene GHRHR): 18.644 | ΔΔCT, GHRHR (gene GHRHR, compared to DMSO): 3.458 | Ct Values, GLUL (gene GLUL): 31.475 | ΔCT (B2M), GLUL (gene GLUL): 12.330 | Ct Values, GOT1 (gene GOT1): 22.841 | ΔCT (B2M), GOT1 (gene GOT1): 3.696 | ΔΔCT, GOT1 (gene GOT1, compared to DMSO): 0.262 | Ct Values, H6PD (gene H6PD): 26.197 | ΔCT (B2M), H6PD (gene H6PD): 7.052 | ΔΔCT, H6PD (gene H6PD, compared to DMSO): 0.142 | Ct Values, HNRPLL (gene HNRPLL): 24.750 | ΔCT (B2M), HNRPLL (gene HNRPLL): 5.605 | ΔΔCT, HNRPLL (gene HNRPLL, compared to DMSO): 1.026 | Ct Values, HPRT1 (gene HPRT1): 21.361 | ΔCT (B2M), HPRT1 (gene HPRT1): 2.216 | Ct Values, IL1RN (gene IL1RN): 33.599 | ΔCT (B2M), IL1RN (gene IL1RN): 14.454 | ΔΔCT, IL1RN (gene IL1RN, compared to DMSO): 1.298 | Ct Values, IL10 (gene IL10): 34.306 | ΔCT (B2M), IL10 (gene IL10): 15.161 | Ct Values, KLF9 (gene KLF9): 30.105 | ΔCT (B2M), KLF9 (gene KLF9): 10.960 | ΔΔCT, KLF9 (gene KLF9, compared to DMSO): −0.431 | Ct Values, KLF13 (gene KLF13): 23.792 | ΔCT (B2M), KLF13 (gene KLF13): 4.647 | ΔΔCT, KLF13 (gene KLF13, compared to DMSO): −0.442 | Ct Values, LOX (gene LOX): 34.511 | ΔCT (B2M), LOX (gene LOX): 15.366 | ΔΔCT, LOX (gene LOX, compared to DMSO): 0.550 | Ct Values, MERTK (gene MERTK): 32.524
